According to paper PMC11728000, “Antitumor Activity and Multi-Target Mechanism of Phenolic Schiff Bases Bearing Methanesulfonamide Fragments: Cell Cycle Analysis and a Molecular Modeling Study” (International Journal of Molecular Sciences, 2024):

Columns and labels:
[1] = tested on: OVCAR-5; assay: NCI anticancer screening (SRB), Ovarian Cancer subpanel; format: cell-based, human
[2] = tested on: SF-268; assay: NCI anticancer screening (SRB), CNS Cancer subpanel; format: cell-based, human
[3] = tested on: HS 578T; assay: NCI anticancer screening (SRB), Breast Cancer subpanel; format: cell-based, human
[4] = tested on: UACC-62; assay: NCI anticancer screening (SRB), Melanoma subpanel; format: cell-based, human
[5] = tested on: NCI-H23; assay: NCI anticancer screening (SRB), Non-Small Cell Lung Cancer subpanel; format: cell-based, human
[6] = tested on: SK-OV-3; assay: NCI anticancer screening (SRB), Ovarian Cancer subpanel; format: cell-based, human
[7] = target: EGFR (Homo sapiens, UniProt P00533); assay: EGFR tyrosine kinase inhibition assay (Kinase-Glo MAX)
[8] = tested on: HL-60(TB); assay: NCI anticancer screening (SRB), Leukemia subpanel; format: cell-based, human
[9] = tested on: KM12; assay: NCI anticancer screening (SRB), Colon Cancer subpanel; format: cell-based, human
[10] = tested on: OVCAR-8; assay: NCI anticancer screening (SRB), Ovarian Cancer subpanel; format: cell-based, human
[11] = tested on: IGROV1; assay: as above; format: cell-based, human
[12] = tested on: CCRF-CEM; assay: NCI anticancer screening (SRB), Leukemia subpanel; format: cell-based, human
[13] = tested on: 786-0; assay: NCI anticancer screening (SRB), Renal Cancer subpanel; format: cell-based, human
[14] = tested on: LOX IMVI; assay: NCI anticancer screening (SRB), Melanoma subpanel; format: cell-based, human
[15] = tested on: SN12C; assay: NCI anticancer screening (SRB), Renal Cancer subpanel; format: cell-based, human
[16] = Homo sapiens, five concentrations

Sequence of EGFR (P00533 25-1210): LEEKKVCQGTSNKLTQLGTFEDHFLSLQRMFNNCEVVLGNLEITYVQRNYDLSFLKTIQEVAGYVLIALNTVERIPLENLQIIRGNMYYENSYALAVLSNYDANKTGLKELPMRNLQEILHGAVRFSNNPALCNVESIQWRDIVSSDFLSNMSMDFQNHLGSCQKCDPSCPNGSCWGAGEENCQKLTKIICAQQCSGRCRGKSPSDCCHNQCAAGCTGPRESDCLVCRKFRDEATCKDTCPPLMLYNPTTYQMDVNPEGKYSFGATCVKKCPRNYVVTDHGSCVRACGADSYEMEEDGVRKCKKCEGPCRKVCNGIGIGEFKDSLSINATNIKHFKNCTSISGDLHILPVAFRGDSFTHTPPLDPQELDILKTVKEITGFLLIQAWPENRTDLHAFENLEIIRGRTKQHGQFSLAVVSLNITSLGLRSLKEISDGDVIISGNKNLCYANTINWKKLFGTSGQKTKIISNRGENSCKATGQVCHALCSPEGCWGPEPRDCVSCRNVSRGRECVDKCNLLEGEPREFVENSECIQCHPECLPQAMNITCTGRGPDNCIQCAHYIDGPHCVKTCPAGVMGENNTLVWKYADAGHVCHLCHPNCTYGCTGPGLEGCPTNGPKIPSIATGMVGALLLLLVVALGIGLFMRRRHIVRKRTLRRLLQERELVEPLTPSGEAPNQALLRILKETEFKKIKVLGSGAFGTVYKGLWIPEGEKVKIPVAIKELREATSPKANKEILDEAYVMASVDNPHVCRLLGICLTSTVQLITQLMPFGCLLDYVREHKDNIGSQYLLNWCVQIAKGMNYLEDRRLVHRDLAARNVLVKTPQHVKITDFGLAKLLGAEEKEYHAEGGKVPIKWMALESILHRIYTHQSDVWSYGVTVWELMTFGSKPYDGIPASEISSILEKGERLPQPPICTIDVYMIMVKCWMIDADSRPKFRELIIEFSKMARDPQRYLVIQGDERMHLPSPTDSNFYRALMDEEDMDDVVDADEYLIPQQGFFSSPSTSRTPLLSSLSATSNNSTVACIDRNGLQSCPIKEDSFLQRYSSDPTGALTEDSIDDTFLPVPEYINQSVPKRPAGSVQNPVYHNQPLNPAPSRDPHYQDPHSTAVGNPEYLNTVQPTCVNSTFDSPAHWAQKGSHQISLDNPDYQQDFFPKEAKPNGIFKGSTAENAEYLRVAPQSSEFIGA

CCN(CC)c1ccc(C=NNC(=O)c2ccc(NS(C)(=O)=O)cc2)c(O)c1 [Compound 8]
GI% ([1]; 10.0 µM in one dose): 54% | GI50 [1, 16]: 1890 nM | GI% ([2]; 10.0 µM in one dose): 77% | GI50 [2, 16]: 252 nM | GI% ([3]; 10.0 µM in one dose): 44% | GI50 [3, 16]: 1470 nM | GI% ([4]; 10.0 µM in one dose): 100% | GI50 [4, 16]: 375 nM | GI% ([5]; 10.0 µM in one dose): 77% | GI50 [5, 16]: 1160 nM | GI% ([6]; 10.0 µM in one dose): 66% | GI50 [6, 16]: 450 nM | IC50 [7]: 166 ± 33 nM | GI% ([8]; 10.0 µM in one dose): 99% | GI50 [8, 16]: 300 nM | GI% ([9]; 10.0 µM in one dose): 85% | GI50 [9, 16]: 509 nM | GI% ([10]; 10.0 µM in one dose): 88% | GI50 [10, 16]: 312 nM | GI% ([11]; 10.0 µM in one dose): 80% | GI50 ([11]; Homo sapiens, IGROV-1, five concentrations): 544 nM | GI% ([12]; 10.0 µM in one dose): 94% | GI50 [12, 16]: 177 nM | GI% ([13]; 10.0 µM in one dose): 98% | GI50 [13, 16]: 358 nM | GI% ([14]; 10.0 µM in one dose): 100% | GI50 [14, 16]: 209 nM | GI% ([15]; 10.0 µM in one dose): 69% | GI50 [15, 16]: 603 nM
